Measured values from patent US20130288917A1, “Rapid High Resolution, High Throughput RNA Structure, RNA-Macromolecular Interaction, and RNA-Small Molecule Interaction Mapping” (The Board of Trustees of the Leland Stanford Junior …, priority 2010, published 2013).
Entries after “also recorded” stand apart in the source; their conditions may differ.

System: HCV IRES
Experiment: sf-SHAPE structure mapping of the HCV IRES in the presence of miRNA
Type: binding, Hepatitis C virus
Excerpt: First, the intricacies (and cost) introduced by using multiple fluorophores have been eliminated by using a single fluorophore-labelled primer and multiple capillaries, rather than using multiple fluorophores sets in each capillary. We have therefore named this technique, single fluorophore SHAPE (sf-SHAPE). sf-SHAPE is a fragment analysis method that uses an internal standard to allow data from one capillary to be directly compared to data from another, with high precision. Commercial software (Peak Scanner, ABI), as well as custom-designed software (CAFA)11, which assign fragment lengths to peaks using an internal standard and integrates each peak area, are freely available.
We have designed a program entitled Fast Analysis of SHAPE Traces (FAST), which then takes the output from Peak Scanner and automatically (a) corrects for signal decay; (b) corrects for differences in signal strength among samples; and (c) assigns the determined SHAPE reactivity to the appropriate nucleotide, using a ddNTP sequencing ladder and the local southern method. […] FAST is able to generate SHAPE reactivity data from electrophoretic traces in as little as 5-10 minutes, as opposed to hours, with high experimental reproducibility (R2=0.93).
We next explored the effect of miR-122 on the HCV IRES structure. In this experiment, the HCV IRES structure was determined in the presence of miR-122 as well as a control miRNA, miR-124. The IRES structure was also determined in the presence of a mutant miR-122, in which the seed region of miR-122 was retained (NT 1-9), while the remainder of the miRNA was replaced by the end of miR-124 [miR-122(seed) with miR-124(tail)].
SHAPE performed as previously described by Mortimer & Weeks (2009) Nature protocols 4, 1413-1421; and Wilkinson et al. (2006) Nature protocols 1, 1610-1616 except: RNA purification after acylation and removal of miRNA before RT by RNA C&C (Zymoresearch); DNA purification by size exclusion (Sephadex G-50 resin); 1 pmol RNA used in sequences reactions; fragment analysis protocol (GeneScan/ROX 500 standard/50 cm capillary/POP6/voltage 15 kV/T=60° C./injection time=15 s (3100 ABI); 6-FAM labelled primers), and PeakScanner/FAST analysis. IRES folding29, (100 mM NaCl; 2.5 mM MgCl), alamar blue assay and qRT-PCR were performed as previously described30. Luciferase assay performed as described30, except co-transfection (HCV/LNA) was by lipofectamine 2000 (3.5×10^5 huh 7.5 cells/well), with translation measured at 4 hours. LNAs purchased from Exiqon (Scramble-miR/hsa-miR-122 kd2). Sequence logo: RNA graphics were drawn using RNA Viz. P-values (two-tailed unpaired t-test) calculated by InStat 3 (Graphpad).

“miR-122: liver-expressed miRNA, UGGAGUGUGA CAAUGGUGUUUG (UGGAGUGUGACAAUGGUGUUUG)” was tested, and the “effect on IRES structure (SHAPE reactivity)” value (HCV IRES with versus without miRNA) was “induced a number of changes”, the “binding at NTs 32-37” value (outside the complementary seed region) was “results in binding” and the “binding to the S2 target of the IRES (NT 38-42)” value (seed site) was “bound”. For the same substance, the “flexibility of the S2 target site” value (upon addition of miRNA, HCV nucleotides 32-42) was “significant reduction in flexibility” and the “flexibility / reactivity of domain IV (AUG start site)” value (upon addition of miRNA, nucleotides 335, 336, 351) was “becomes more flexible; also recorded: significantly increased flexibility”.
